Data published in PMC11418212, “Characterization of four structurally diverse inhibitors of SUR2-containing KATP channels” (Channels, 2024).
Where “and” joins values, the source holds several entries; their conditions need not be identical. Equal entries are not always repeated.

What was measured:
Test in all cases: Kir family selectivity thallium flux assay
Assay type in all cases: cell-based
Kir1.1 = biological target: T1, Kir1.1 (Homo sapiens, UniProt P48048)
T1 construct: expressed in transfected cells
T1 sequence (P48048 1-391): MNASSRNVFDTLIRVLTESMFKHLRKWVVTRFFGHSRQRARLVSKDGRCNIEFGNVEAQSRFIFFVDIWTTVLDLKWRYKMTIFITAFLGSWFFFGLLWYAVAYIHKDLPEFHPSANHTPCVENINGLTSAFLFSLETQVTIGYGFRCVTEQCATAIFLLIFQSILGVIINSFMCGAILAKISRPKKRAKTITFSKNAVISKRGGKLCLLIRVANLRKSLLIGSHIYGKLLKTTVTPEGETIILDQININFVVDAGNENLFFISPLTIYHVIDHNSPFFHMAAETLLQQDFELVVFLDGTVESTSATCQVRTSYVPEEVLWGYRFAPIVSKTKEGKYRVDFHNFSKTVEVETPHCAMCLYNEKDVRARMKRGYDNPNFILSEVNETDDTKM
Method: (§1) Thallium flux assays were conducted using the established methods. Stably transfected T-REx-HEK-293 cells expressing Kir6.2/SUR1 or Kir6.1/SUR2B were cultured overnight in polyamine-coated plates (black-walled, clear-bottomed; BD, Bedford, MA) at a density of 20,000 cells in 20 µl per well of cell culture media. The expression of Kir6.2/SUR1 or Kir6.1/SUR2B channels was induced by treating cells with 1 µg/ml tetracycline overnight. The following day, cells were rinsed with an assay buffer (Hanks’ Balanced Salt Solution supplied with 20 mM HEPES), loaded with the thallium-sensor dye Brilliant Thallos-AM AM (Ion Bioscience, San Marcos, TX) for 1 h, and then washed again with assay buffer to remove unincorporated dye. The cell plate was subsequently placed in a Panoptic Kinetic Imaging Plate Reader (Wavefront Bioscience, Franklin, TN) and imaged at a frequency of 1 Hz using 482/35 nm (excitation) and 536/40 nm (emission) filter sets. Kir6.1/SUR2B channels were activated with 10 µM pinacidil, whereas Kir6.1/SUR1 was activated with 30 µM VU0071063 [34]. To activate KATP channels independent of activators with ATP-depletion method, cells were treated with a cocktail of metabolic inhibitors (2.5 mM sodium cyanide and 20 mM 2-deoxy glucose) for 25 min before imagine. Control and test compounds diluted freshly from DMSO stocks into assay buffer were added to wells for four minutes before adding 0.5 mM chloride-free thallium stimulus buffer (Ion Bioscience) to initiate thallium flux through the expressed KATP channels. Thallium flux was recorded from all 384-wells for 2 min before terminating the experiment. […] Selectivity assays against other Kir channels were performed as described previously.
(§2) To begin elucidating the binding site location of VU0212387, VU0543336, VU0605768, and VU0544086, we evaluated the activity of the inhibitors against KATP channels composed of different Kir and SUR subunit combinations expressed in HEK293 cells. Specifically, the compounds were tested against Kir6.1/SUR1, Kir6.2/SUR1, Kir6.1/SUR2A, Kir6.2/SUR2A, Kir6.1/SUR2B, and Kir6.2/SUR2B at a dose of 3 µM. […] We expanded the selectivity analysis to include 10 other members of the Kir channel family.

Kir3.1/3.4 = biological target: T2, Kir3.1/3.4 (Homo sapiens, UniProt P48544+P48549); settings: for IC50: thallium flux
T2 construct: expressed in transfected cells
T2 sequence (P48549 1-501): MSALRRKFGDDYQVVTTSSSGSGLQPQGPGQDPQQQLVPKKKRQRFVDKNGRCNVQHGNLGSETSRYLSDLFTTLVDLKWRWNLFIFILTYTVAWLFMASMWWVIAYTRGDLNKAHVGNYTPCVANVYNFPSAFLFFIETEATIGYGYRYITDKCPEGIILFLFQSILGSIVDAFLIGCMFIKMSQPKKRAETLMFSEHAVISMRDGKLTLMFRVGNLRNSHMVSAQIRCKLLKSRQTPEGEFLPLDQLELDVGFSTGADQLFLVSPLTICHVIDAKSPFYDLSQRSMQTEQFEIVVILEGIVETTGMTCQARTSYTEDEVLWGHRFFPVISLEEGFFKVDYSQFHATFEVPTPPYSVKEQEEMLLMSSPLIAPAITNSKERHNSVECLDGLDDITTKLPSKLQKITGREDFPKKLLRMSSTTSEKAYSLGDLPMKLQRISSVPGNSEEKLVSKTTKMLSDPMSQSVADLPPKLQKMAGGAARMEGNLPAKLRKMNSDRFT
T2 sequence (P48544 1-419): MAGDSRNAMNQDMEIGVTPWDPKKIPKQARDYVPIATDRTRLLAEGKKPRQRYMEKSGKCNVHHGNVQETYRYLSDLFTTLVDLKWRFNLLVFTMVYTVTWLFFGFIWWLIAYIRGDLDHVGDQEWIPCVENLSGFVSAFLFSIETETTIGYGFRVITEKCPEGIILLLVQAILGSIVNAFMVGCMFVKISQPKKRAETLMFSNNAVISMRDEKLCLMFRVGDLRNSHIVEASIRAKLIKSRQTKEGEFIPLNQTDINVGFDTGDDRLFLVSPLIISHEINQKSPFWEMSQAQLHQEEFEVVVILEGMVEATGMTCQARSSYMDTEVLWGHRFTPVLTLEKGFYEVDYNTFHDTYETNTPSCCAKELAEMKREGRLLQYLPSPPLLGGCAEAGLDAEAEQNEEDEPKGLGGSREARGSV
Method: as §1, §2

Kir4.2 = biological target: T3, Kir4.2 (Homo sapiens, UniProt Q99712); settings: for inhibition at 30 µM: observed at 30 µM, read-out: Percent maximal inhibition of Kir4.2; for IC50: thallium flux
T3 construct: expressed in transfected cells
T3 sequence (Q99712 1-375): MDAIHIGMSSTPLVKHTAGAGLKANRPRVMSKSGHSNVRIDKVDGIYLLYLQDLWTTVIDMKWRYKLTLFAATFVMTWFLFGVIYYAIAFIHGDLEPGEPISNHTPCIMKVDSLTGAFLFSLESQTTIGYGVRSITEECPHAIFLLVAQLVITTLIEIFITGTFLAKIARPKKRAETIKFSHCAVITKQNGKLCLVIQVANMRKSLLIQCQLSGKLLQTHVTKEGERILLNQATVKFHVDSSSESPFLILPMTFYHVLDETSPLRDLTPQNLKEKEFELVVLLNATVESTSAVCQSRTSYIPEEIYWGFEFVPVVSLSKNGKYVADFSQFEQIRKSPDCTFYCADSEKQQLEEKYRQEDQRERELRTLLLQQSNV
Method: as §1, §2

O=C(NCC(O)(c1ccccc1)C(F)(F)F)c1ccc(OC(F)(F)F)cc1 (stereo not drawn) [VU0543336, N-(3,3,3-trifluoro-2-hydroxy-2-phenylpropyl)-4-(trifluoromethoxy)benzamide] was tested, and the IC50 (Kir1.1) was > 30 µM, the IC50 (Kir3.1/3.4) was > 30 µM and the inhibition at 30 µM (Kir4.2) was 110%. For the same compound, the IC50 (Kir4.2) was 12 µM and 11.8 µM.
In the case of O=C1c2oc3ccccc3c(=O)c2C(c2cccc(Br)c2)N1CCO (stereo not drawn) [VU0605768, 1-(3-bromophenyl)-2-(2-hydroxyethyl)-1,2-dihydrochromeno[2,3-c]pyrrole-3,9-dione], the IC50 (Kir1.1) is reported as > 30 µM, the IC50 (Kir3.1/3.4) is reported as > 30 µM and the IC50 (Kir4.2) is reported as > 30 µM.
O=C(NCc1cc(-c2ccncc2)n(C2CCCC2)n1)Nc1cccs1 [VU0544086, 1-((1-cyclopentyl-5-(pyridin-4-yl)-1 H-pyrazol-3-yl)methyl)-3-(thiophen-2-yl)urea] was tested, and the IC50 (Kir1.1) was > 30 µM, the inhibition at 30 µM (Kir3.1/3.4; observed at 30 µM, read-out: Percent maximal inhibition of Kir3.1/3.4) was 92% and the IC50 (Kir3.1/3.4) was 16.2 µM. The IC50 (Kir4.2) was > 30 µM.
In the case of c1ccc2[nH]c(CSc3ncnc4c3oc3ccccc34)nc2c1 [VU0212387, 4-(((1 H-benzo[d]imidazol-2-yl)methyl)thio)benzofuro[3,2-d]pyrimidine], the IC50 (Kir1.1) is reported as > 30 µM, the IC50 (Kir3.1/3.4) is reported as > 30 µM and the inhibition at 30 µM (Kir4.2) is reported as 56%. For the same compound, the IC50 (Kir4.2) was 17 µM and 17.1 µM.
